Data on 7 compounds can be found in patent publication US20150218212A1, “FLUORINATED EPOXYKETONE-BASED TETRAPEPTIDE COMPOUNDS AND USES THEREOF AS PROTEASOME INHIBITORS” (FLUORINOV PHARMA INC., priority 2012, published 2015).

In one experiment the test system is KMS-11. Put plainly: Cell viability (MTS) assay, KMS-11. It counts as cell-based. Conditions: Homo sapiens; KMS-11, MTS, 72 hours, mean ± standard deviation. As to the method:
Human multiple myeloma cell lines 8226, H929, JJN3, KMH11, KMS11, KMS18, LP1, MM1S, OPM2 and U266 were grown in Iscove modified Dulbecco's medium (IMDM). Human leukemia cell lines K562, OCI-AML2 and U937 were cultured in RPMI-1640 medium. Primary peripheral blood mononuclear cells were isolated from multiple myeloma patients by Ficoll density gradient centrifugation and bone marrow aspirates were obtained from multiple myeloma patients at the Princess Margaret Cancer Centre of the University Health Network (UHN; Toronto, ON, Canada). Primary cells were cultured in IMDM. The collection and use of human tissue for this study was approved by the UHN institutional ethics review board. All cell culture media were obtained from the Ontario Cancer Institute Tissue Culture Media Facility (Toronto, ON, Canada) and were supplemented with 10% fetal calf serum, […] (Hyclone, Logan, Utah). All cells were grown in a humidified incubator at 37° C. with 5% CO2.
Cellular viability was primarily assessed by 3-(4,5-dimethylthiazol-2-yl)-5-(3-carboxymethoxyphenyl)-2-(4-sulfophenyl)-2H-tetrazolium (MTS) assay according to the manufacturer's instructions (Promega; Madison, Wis.). Cells were first seeded at a density of 10,000 cells per well in tissue culture-treated 96-well plates. Two hours after seeding, cells were treated with compounds for 72 hours at concentrations as indicated. As a control, cells were treated with DMSO alone in every assay plate. Following treatment and the MTS assay, cell viability was independently confirmed by reading the optical density (O.D.) at 490 nm and by exclusion of trypan blue stain (Invitrogen; Burlington, ON, Canada). The viability of primary mononuclear cells was determined by staining with Annexin V.
Table 8 summarizes the data of representative compounds of Formula I for cell viability and CT-L proteasome activity with OCI-AML-2 and KMS-11 cell lines.

Another experiment has as its system SF-268. The experiment in a line: NCI screening panel, SF-268 (CNS Cancer). Format: cell-based, human. The method, then:
(§1) Representative compounds of Formula I were screened using the National Cancer Institute (NCI) screening panel, which consists of a panel of human tumor cell lines, representing leukemia, melanoma, and cancers of the lung, colon, ovary, breast, prostate and renal system.
(§2) After 24 h, two plates of each cell line are fixed in situ with TCA, to represent a measurement of the cell population for each cell line at the time of drug addition (Tz). Experimental drugs are solubilised in dimethyl sulfoxide at 400-fold the desired final maximum test concentration and stored frozen prior to use. At the time of drug addition, an aliquot of frozen concentrate is thawed and diluted to twice the desired final maximum test concentration with complete medium containing 50 μg/mL gentamicin. Additional four, 10-fold or ½ log serial dilutions are made to provide a total of five drug concentrations plus control. Aliquots of 100 μl of these different drug dilutions are added to the appropriate microtiter wells already containing 100 μl of medium, resulting in the required final drug concentrations.
(§3) Following drug addition, the plates are incubated for an additional 48 h at 37° C., 5% CO2, 95% air, and 100% relative humidity. For adherent cells, the assay is terminated by the addition of cold TCA (trichloroacetic acid). Cells are fixed in situ by the gentle addition of 50 μl of cold 50% (w/v) TCA (final concentration, 10% TCA) and incubated for 60 minutes at 4° C. The supernatant is discarded, and the plates are washed five times with tap water and air dried. Sulforhodamine B (SRB) solution (100 μl) at 0.4% (w/v) in 1% acetic acid is added to each well, and plates are incubated for 10 minutes at room temperature. After staining, unbound dye is removed by washing five times with 1% acetic acid and the plates are air dried. Bound stain is subsequently solubilised with 10 mM trizma base, and the absorbance is read on an automated plate reader at a wavelength of 515 nm. For suspension cells, the methodology is the same except that the assay is terminated by fixing settled cells at the bottom of the wells by gently adding 50 μl of 80% TCA (final concentration, 16% TCA). Using the seven absorbance measurements [time zero, (Tz), control growth, (C), and test growth in the presence of drug at the five concentration levels (Ti)], the percentage growth is calculated at each of the drug concentrations levels. Percentage growth inhibition is calculated as: [(Ti−Tz)/(C−Tz)]×100 for concentrations for which Ti>/=Tz and [(Ti−Tz)/Tz]×100 for concentrations for which Ti<Tz.
(§4) Three dose response parameters are calculated for each experimental agent. Growth inhibition of 50% (GI50) is calculated from [(Ti−Tz)/(C−Tz)]×100=50, which is the drug concentration resulting in a 50% reduction in the net protein increase (as measured by SRB staining) in control cells during the drug incubation. The drug concentration resulting in total growth inhibition (TGI) is calculated from Ti=Tz. The LC50 (concentration of drug resulting in a 50% reduction in the measured protein at the end of the drug treatment as compared to that at the beginning) indicating a net loss of cells following treatment is calculated from [(Ti−Tz)/Tz]×100=−50. Values are calculated for each of these three parameters if the level of activity is reached. However, if the effect is not reached or is exceeded, the value for that parameter is expressed as greater or less than the maximum or minimum concentration tested.

The subject of another experiment is MDA-MB-435. The experiment in a line: NCI screening panel, MDA-MB-435 (Melanoma). Format: cell-based, human. As to the method: as §1, §2, §3, §4

Regarding `CC(C)C[C@H](NC(=O)[C@H](COC(F)F)NC(=O)CN1CCOCC1)C(=O)N[C@@H](COC(F)F)C(=O)N[C@@H](CC(C)C)C(=O)[C@@]1(C)CO1` [Example 1, (2S)—N-[(1S)-1-(difluoromethoxymethyl)-2-[[(1S)-3-methyl-1-[(2R)-2-methyloxirane-2-carbonyl]butyl]amino]-2-oxo-ethyl]-2-[[(2S)-3-(difluoromethoxy)-2-[(2-morpholinoacetyl)amino]propanoyl]amino]-4-methyl-pentanamide], the IC50 in the experiment on KMS-11 came out at 26.6 ± 8.47 nM. In the experiment with SF-268, this compound returned a Log10GI50 of −7.65, a Log10LC50 above −4.00 and a Log10TGI50 of −7.17. In the experiment on MDA-MB-435, this compound yielded a Log10GI50 of −7.78, a Log10LC50 of −7.07 and a Log10TGI50 of −7.42.

`CC(C)C[C@H](NC(=O)[C@H](COC(F)F)NC(=O)[C@H](COC(F)F)NC(=O)[C@H](CCc1ccccc1)NC(=O)CN1CCOCC1)C(=O)[C@@]1(C)CO1` [Example 7, (2S)-N-[(1S)-1-(difluoromethoxymethyl)-2-[[(1S)-1-(difluoromethoxymethyl)-2-[[(1S)-3-methyl-1-[(2R)-2-methyloxirane-2-carbo-nyl]butyl]amino]-2-oxo-ethyl]amino]-2-oxo-ethyl]-2-[(2-morpholinoacetyl)amino]-4-phenyl-butanamide] came in with a half-maximal inhibitory concentration (IC50) in the experiment on KMS-11 of 19.8 ± 0.532 nM. In the experiment on SF-268, this compound showed a Log10GI50 of −7.73, a Log10LC50 above −4.00 and a Log10TGI50 of −7.21. In the experiment on MDA-MB-435, the Log10GI50 is −7.83, the Log10LC50 is recorded as −7.12 and the Log10TGI50 was −7.47.

In the experiment with KMS-11, `CC(C)C[C@H](NC(=O)[C@H](COC(F)F)NC(=O)CN1CCOCC1)C(=O)N[C@@H](Cc1ccccc1)C(=O)N[C@@H](CC(C)C)C(=O)[C@@]1(C)CO1` [Example 2, (2S)-N-[(1S)-1-benzyl-2-[[(1S)-3-methyl-1-[(2R)-2-methyloxirane-2-carbonyl]butyl]-amino]-2-oxo-ethyl]-2-[[(2S)-3-(difluoromethoxy)-2-[(2-morpholinoacetyl)amino]propanoyl]amino]-4-methyl-pentanamide] had an IC50 of 21.9 ± 0.342 nM. In the experiment with SF-268, the Log10GI50 is −7.81, the Log10LC50 is listed as above −4.00 and the Log10TGI50 is −7.20. Besides, in the experiment with MDA-MB-435, the Log10GI50 is −7.99, the Log10LC50 is −7.14 and the Log10TGI50 is −7.56.

In the experiment on KMS-11, `CC(C)C[C@H](NC(=O)[C@H](COC(F)F)NC(=O)[C@H](COC(F)F)NC(=O)[C@H](COC(F)F)NC(=O)CN1CCOCC1)C(=O)[C@@]1(C)CO1` [Example 17, (2S)-3-(difluoromethoxy)-N-[(1S)-1-(difluoromethoxymethyl)-2-[[(1S)-1-(difluoro-methoxymethyl)-2-[[(1S)-3-methyl-1-[(2R)-2-methyloxirane-2-carbonyl]butyl]amino]-2-oxo-ethyl]amino]-2-oxo-ethyl]-2-[(2-mor-pholinoacetyl)amino]-propanamide] registered an IC50 of 166 ± 13.4 nM. In the experiment with SF-268, this compound yielded a Log10GI50 of −7.15, a Log10LC50 of −4.87 and a Log10TGI50 of −6.47. Also, in the experiment with MDA-MB-435, the Log10GI50 is −7.42, the Log10LC50 is −6.29 and the Log10TGI50 is on record as −6.81.

As for `CC(C)C[C@H](NC(=O)[C@H](COC(F)F)NC(=O)CN1CCOCC1)C(=O)N[C@@H](COC(F)F)C(=O)N[C@@H](Cc1ccccc1)C(=O)[C@@]1(C)CO1` [Example 4, (2S)-N-[(1S)-2-[[(1S)-1-benzyl-2-[(2R)-2-methyloxiran-2-yl]-2-oxo-ethyl]amino]-1-(difluoromethoxymethyl)-2-oxo-ethyl]-2-[[(2S)-3-(difluoromethoxy)-2-[(2-mor-pholinoacetyl)amino]propanoyl]amino]-4 methyl-pentanamide], the concentration for half-maximal inhibition (IC50) with KMS-11 is 33.9 ± 2.11 nM. Besides, in the experiment on SF-268, the Log10GI50 is listed as −7.58, the Log10LC50 is reported as above −4.00 and the Log10TGI50 is listed as −6.82. In the experiment with MDA-MB-435, this compound registered a Log10GI50 of −7.79, a Log10LC50 of −7.09 and a Log10TGI50 of −7.44.

Compound `CC(C)C[C@H](NC(=O)[C@H](Cc1ccccc1)NC(=O)[C@H](COC(F)F)NC(=O)[C@H](COC(F)F)NC(=O)CN1CCOCC1)C(=O)[C@@]1(C)CO1` [Example 11, (2S)-2-[[(2S)-3-(difluoromethoxy)-2-[[(2S)-3-(difluoromethoxy)-2-[(2-morpholinoacetyl)-amino]propanoyl]amino]propanoyl]amino]-N-[(1S)-3-methyl-1-[(2R)-2-methyloxirane-2-carbonyl]butyl]-3-phenyl-propanamide] displayed a concentration for half-maximal inhibition (IC50) with KMS-11 of 24.3 ± 0.568 nM. In the experiment on SF-268, this compound displayed a Log10GI50 of −7.66, a Log10LC50 of −4.07 and a Log10TGI50 of −7.22. In the experiment with MDA-MB-435, this compound returned a Log10GI50 of −7.90, a Log10LC50 of −7.24 and a Log10TGI50 of −7.57.

On to `CC(C)C[C@H](NC(=O)[C@H](COC(F)F)NC(=O)CN1CCOCC1)C(=O)N[C@@H](Cc1ccccc1)C(=O)N[C@@H](Cc1ccccc1)C(=O)[C@@]1(C)CO1` [Example 3, (2S)-N-[(1S)-1-benzyl-2-[[(1S)-1-benzyl-2-[(2R)-2-methyloxiran-2-yl]-2-oxo-ethyl]amino]-2-oxo-ethyl]-2-[[(2S)-3-(difluoromethoxy)-2-[(2-morpholinoacetyl)-amino]propanoyl]amino]-4-methyl-pentan-amide], for which, in the experiment with KMS-11, it took 17.6 ± 0.629 nM to reach half-maximal inhibition (IC50). Further, in the experiment with SF-268, the Log10GI50 is below −8.00, the Log10LC50 was −4.98 and the Log10TGI50 was −7.40. In the experiment on MDA-MB-435, the Log10GI50 is given as below −8.00, the Log10LC50 is −7.34 and the Log10TGI50 is recorded as −7.90.

Broadly, the IC50 is the point on the concentration scale where inhibition reaches its midpoint.
